Consider one cell line from the supplement of paper PMC10307832.

Experiment in all cases: relative viability (nuclei count vs DMSO), 5 days (fraction); higher = more cells survive
Compound in the assay “IU1-47 + Linsitinib”: CC1=CC(=C(N1C2=CC=C(C=C2)Cl)C)C(=O)CN3CCCCC3 [IU1-47] + C[C@]1(O)C[C@@H](c2nc(-c3ccc4ccc(-c5ccccc5)nc4c3)c3c(N)nccn32)C1 [Linsitinib] (partner 1 µM)
Summed up: (§1)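 Relative viability equals treated-well nuclei counts divided by vehicle-well nuclei counts. Counts came from 4× images of lung cancer cell lines grown in 1536-well plates for 5 days after pin-tool dosing on the day after seeding. Dosing used one drug alone or a fixed anchor-drug dose plus five library-drug doses (not always all listed) in √10 steps, and values are medians of duplicate plates.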

Compound in the assay “FG-4592 + Tozasertib”: Cc1nc(C(=O)NCC(=O)O)c(O)c2ccc(Oc3ccccc3)cc12 [FG-4592] + Cc1cc(Nc2cc(N3CCN(C)CC3)nc(Sc3ccc(NC(=O)C4CC4)cc3)n2)n[nH]1 [Tozasertib] (partner 0.1 µM)
Summed up:
as §1

Compound in the assay “FG-4592 + Decitabine”: Cc1nc(C(=O)NCC(=O)O)c(O)c2ccc(Oc3ccccc3)cc12 [FG-4592] + Nc1ncn([C@H]2C[C@H](O)[C@@H](CO)O2)c(=O)n1 [Decitabine] (partner 2 µM)
Summed up: as §1

Compound in the assay “IU1-47 + Lapatinib”: CC1=CC(=C(N1C2=CC=C(C=C2)Cl)C)C(=O)CN3CCCCC3 [IU1-47] + CS(=O)(=O)CCNCc1ccc(-c2ccc3ncnc(Nc4ccc(OCc5cccc(F)c5)c(Cl)c4)c3c2)o1 [Lapatinib] (partner 2 µM)
The procedure, abridged: as §1

For the cell line UMC-11, the relative viability with IU1-47 + Linsitinib (first compound 0.08 µM) was 0.996; with IU1-47 + Linsitinib (first compound 0.253 µM), 0.978; with IU1-47 + Linsitinib (first compound 0.8 µM), 1.12; in the assay with IU1-47 + Linsitinib (first compound 2.53 µM) it was 1.07; in the assay with IU1-47 + Linsitinib (first compound 8 µM) it was 0.952; with FG-4592 + Tozasertib (first compound 0.08 µM), 0.217. Further, the relative viability turned out to be 0.184 with FG-4592 + Tozasertib (first compound 0.253 µM); 0.199 with FG-4592 + Tozasertib (first compound 0.8 µM); 0.203 with FG-4592 + Tozasertib (first compound 2.53 µM); 0.198 in the assay with FG-4592 + Tozasertib (first compound 8 µM); 0.54 in the assay with FG-4592 + Decitabine (first compound 0.08 µM); 0.604 with FG-4592 + Decitabine (first compound 0.253 µM). For the same cell line, the relative viability was determined as 0.532 with FG-4592 + Decitabine (first compound 0.8 µM); 0.423 in the assay with FG-4592 + Decitabine (first compound 2.53 µM); 0.365 with FG-4592 + Decitabine (first compound 8 µM); 0.887 with IU1-47 + Lapatinib (first compound 0.08 µM); 0.877 in the assay with IU1-47 + Lapatinib (first compound 0.253 µM); 1.03 with IU1-47 + Lapatinib (first compound 0.8 µM). The figures for the relative viability with IU1-47 + Lapatinib (first compound 2.53 µM) and with IU1-47 + Lapatinib (first compound 8 µM) were 1.24 and 0.876, respectively.
